# According to PMC12040169 (PLOS Biology, 2025):
# “And” between values parts separate entries of the source, which are not always exact repeats. Identical values can stand only once.
# Tests used:
# HeLa = settings: bulk resorufin, single well, 28.5 h, 10 µM, Bulk resorufin fluorescence
# in vitro = settings: human, hela cells, % viability
Compound,% viability (HeLa),"viability at 28.5 h, 10 µM (in vitro) [%]"
C[C@H](Cn1c(C(F)(F)F)cc2cccnc21)NC(=O)c1ccco1 [CBK282933],94.6%,91.5
c1cncc(COc2cncc(OC3CCN(CCc4c[nH]c5ccccc45)C3)n2)c1 (stereo not drawn) [CBK084471],113%,111
O=C(O)C1CCN(C2CC(=O)N(CCc3ccccc3)C2=O)CC1 (stereo not drawn) [CBK269100],97.3%,97.1
CCC1CCCCN1C(=O)c1ccc(C(=O)NC)cc1 (stereo not drawn) [CBK083371],103%,95.6
CCN(Cc1ccccc1)C(=O)NCc1cc(C)on1 [CBK155211],92.6%,106
CC1CCc2c(sc3ncnc(SCC(=O)N4CCOCC4)c23)C1 (stereo not drawn) [CBK266192],111%,105
O=C(NCCN1CCCC1)c1cc2cc(F)ccc2[nH]1 [CBK107278],105%,106
Cc1ccc(S(=O)(=O)N2CCN(c3ccc(Cl)c(Cl)c3)CC2)c(C)c1 [CBK099298],118%,111
Cc1cc(C(NC(C)(C)C)C(=O)O)cc(C)c1O (stereo not drawn) [CBK027143],90.9%,86.6
FC(F)(F)c1ccc(Sc2ccccn2)nc1 [CBK093785],111%,100
COc1ccccc1CC(=O)Nc1ccc(O)cc1C(=O)O [CBK264305],91.2%,105
O=C(NC1CCCCC1)[C@H]1C=CCN1C(=O)c1ccccc1F [CBK283334],98%,85.6
O=C(NCCCN1CCCCC1)/C(=N\O)c1ccccc1 [CBK288524],85.9%,97.7
Cc1cc2c(cc1C)NC(CC(=O)Nc1ccc(Cl)cc1)C(=O)N2 (stereo not drawn) [CBK263245],90.5%,83.4
CCCC(=O)Nc1cc2ccccc2c(N2CCNCC2)n1 [CBK024608T],104%,102
O=C(O)CC1C(=O)NCCN1Cc1cccc(Oc2ccccc2)c1 (stereo not drawn) [CBK270023],103%,91.4
CC[C@H](Cn1ncc2ccccc2c1=O)NC(=O)Cc1ccsc1 [CBK284306],88.7%,98.4
Cc1nnc2c(N3CCNCC3)nc3ccccc3n12 [CBK270224],75.4%,89
COc1ccc(NC(=O)[C@@H]2C=CCN2C(=O)c2ccco2)cc1 [CBK284292],77.2%,88.5
O=S(=O)(Nc1ncc(Br)c2cccnc12)c1ccc(-c2ccccc2)cc1 [CBK073885],110%,98.8
O=C(NCCc1ccccc1)[C@H]1C=CCN1C(=O)c1ccccc1F [CBK285471],104%,94
COc1ccc(CN2CCCN(c3nccc(OCCN4CCOCC4)n3)CC2)cc1 [CBK083932],108%,104
CN1CCN(S(=O)(=O)c2cccc3cccnc23)CC1 [CBK051241],93.2%,106
C=CCNC(=O)[C@@H]1C=CCN1C(=O)c1ccccc1F [CBK283052],98.9%,105
Cc1ccc(S(=O)(=O)Nc2ccsc2C(=O)N2CCOCC2)cc1 [CBK004570],107%,99.9
O=C1CCC(=O)N1CCOc1nccnc1OC1CCN(Cc2cccnc2)CC1 [CBK084339],89.7%,107
CCC(=O)N1CCC[C@H](Cn2nc(-c3cccs3)ccc2=O)C1 [CBK283046],100%,95.3

Compound,% viability (HeLa),"viability at 28.5 h, 10 µM (in vitro) [%]"
Nc1nn2c(c1Cc1c(Cl)cccc1Cl)OCCCC2 [CBK089335],86.2%,91.8
CC[C@@H](Cn1ncc2ccccc2c1=O)NC(=O)C1CC1 [CBK282385],91.3%,88.3
Cn1cc(C(=O)N2C3CCC(C3)[C@@H]2COc2ccc(F)cc2)cn1 (stereo partly drawn) [CBK284605],112%,93.7
FC(F)(F)c1cccc(-c2cnn(-c3ccncc3)n2)c1 [CBK112668],93.6%,102
C[C@@H](Cn1c(=O)oc2ccccc21)NC(=O)Cc1c[nH]c2ccccc12 [CBK284534],88.7%,85.7
COc1cccc2sc(NC(=O)c3ccc4c(c3)OCCO4)nc12 [CBK149285],92.1%,99.1
Fc1ccc(COc2cc(N3CCCC3)ncn2)cc1 [CBK115675],96.4%,109
CC(C)Nc1nc(-c2cccnc2)nc2ccccc12 [CBK073006],94.6% and 102%,91.1
NC(=O)CSc1nnc(-c2ccc(Cl)cc2)o1 [CBK068597],89.3%,105
CCN(CC)C(=O)Cn1c([C@@H]2CCCO2)cc2cccnc21 [CBK282283],90.4%,105
C[C@H]1CN2C[C@H](O)CC2CN1Cc1cccc(Oc2ccccc2)c1 (stereo partly drawn) [CBK284566],96.2%,93.6
O=C(NCCc1ccccc1)[C@@H]1C=CCN1C(=O)c1cccs1 [CBK284320],92.9%,95.2
Cc1cc(-c2nccnc2NCCCN2CCCC2=O)cc(C)c1O [CBK037632],98%,94.1
CC1Cc2ccccc2N1c1ncnc2nc[nH]c12 (stereo not drawn) [CBK287388],66.9%,66.8
O=C(O)c1ccc(S(=O)(=O)Nc2ccc(O)c(-c3c(O)ccc4ccccc34)c2)cc1 [CBK267667],94.7%,108
CCOC(=O)CSc1nc2ccccc2nc1NC(C)C [CBK107166],111%,101
C[C@H](Cn1nc2c(cc1=O)CCCCC2)NC(=O)c1ccc(F)cc1 [CBK284557],93.4%,98.4
C[C@H]1CN2CCCC2CN1Cc1ccc(CN(C)C)cc1 (stereo partly drawn) [CBK285438],101%,88.9
CSCC[C@@H]1CN2CCC[C@H]2CN1Cc1cn(C)nc1C [CBK285462],107%,95.5
CC(C)(C)OC(=O)N1CCC[C@H]1C(=O)c1nccs1 [CBK284282],95.5%,108
COc1ccc(CN2CC3CCCN3C[C@H]2C)cc1 (stereo partly drawn) [CBK285412],103%,111
Nc1ccc2cc(-c3ccccc3)cnc2n1 [CBK061881],94.9%,81.7
CC(C)(CC(=O)O)CC(=O)Nc1cccc(CCc2ccncc2)c1 [CBK286989],84.8%,99.3
CC(C)NC(=O)n1nccc1-c1cc(-c2ccccc2)no1 [CBK086581],82.6%,102
COc1cccc(CN2CC3CCCN3C[C@H]2C)c1 (stereo partly drawn) [CBK285442],105%,113
O=C(O)C1Cc2c([nH]c3ccccc23)C(c2ccc(Cl)cc2Cl)N1 (stereo not drawn) [CBK115930],96.2%,88.5
COc1ccc(NC(=O)Nc2ccncc2)c(OC)c1 [CBK266973],93.8%,95.5
